# Test results taken from patent US7488792B2, “Collagen-binding molecules that selectively home to tumor vasculature and methods of using same” (Burnham Institute for Medical Research, priority 2002, dated 2009).
# Ends that are not written are not given here. * marks the point of attachment. FITC = O=C1OC2(c3ccc(O)cc3Oc3cc(O)ccc32)c2ccc(NC(=S)*)cc21
# How the values were obtained:
# [1] = system: vasculature of MDA-MB-435 human breast cancer cell xenografts; experiment: In vivo homing of phage to MDA-MB-435 xenografts in nude mice (phage recovery, pfu); design: species or system mouse; details: co-injection
# Protocol: Phage preparations (1×10^9 plaque forming units (pfu)) of CREKA (SEQ ID NO: 1)-displaying phage were injected into tumor-bearing mice and subsequently recovered from breast tumors and a variety of normal tissues. […] The CREKA (SEQ ID NO: 1) phage also homed to the vasculature of MDA-MB-435 human breast cancer cell xenografts grown in the mammary fat pad of nude mice with a 20-fold specificity over non-recombinant phage as shown in FIG. 1B.
# In vivo phage display screens were performed with 65 to 75 day old transgenic MMTV PyMT mice obtained from Dr. William Muller. MDA-MB-435 tumors were generated as described in Laakkonen et al., Nat. Med. 7:751-755 (2002). Briefly, 10^6 MDA-MB-435 cells in 100 μl phosphate buffered saline (PBS) were injected into the mammary fat pad of nude mice. Tumors were grown for five weeks before the animals were used in vivo studies. In vivo phage screening was performed as described in Porkka et al., Proc. Natl. Acad. Sci., USA 99:7444-7449 (2002), with a few modifications. Briefly, mice were anesthetized with avertin and then injected intravenously with 10^9 pfu of the CX7C library. Mice were perfused through the heart with 10 ml of PBS seven minutes after the injection. […] Cell-adherent phage particles were recovered by infecting BL21 bacteria (Novagen), and the number of phage quantified by plaque assay.
# [2] = target: T1, collagen IV fragment of clone #3 (SEQ ID NO: 2) (Mus musculus, UniProt P08122); experiment: Binding of phage displaying clone #3 collagen IV fragment to immobilized CREKA peptide and its competition; design: effect of fibronectin on phage binding (clone #3 fragment / immobilized CREKA): dose or concentration left out as unconfirmed
# T1 construct: made in house; host or cells: T7 phage (modified T7Select1-2b) amplified in BLT 5615 bacteria; cDNA from mouse 4T1 cells
# T1 sequence (P08122 with tags, fused parts or gaps): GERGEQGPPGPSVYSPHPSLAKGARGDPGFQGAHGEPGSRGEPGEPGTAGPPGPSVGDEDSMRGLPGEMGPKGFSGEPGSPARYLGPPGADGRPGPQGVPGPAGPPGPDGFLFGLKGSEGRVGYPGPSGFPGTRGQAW
# Protocol: Expression cloning was performed essentially as described in Essler and Ruoslahti, Proc. Natl. Acad. Sci., USA 99:2252-2257 (2002). CREKA (SEQ ID NO: 1) peptide was synthesized on a Symphony synthesizer (Rainin Instruments; Emeryville, Calif.) at The Burnham Institute peptide facility, and purified by high performance liquid chromatography. […] Biotin-labeled peptide (2 mg/ml) was immobilized on a streptavidin-coated 96 well Reacti-Bind® polystyrene strip plate (Pierce; Rockford, Ill.) by coating overnight at room temperature with 100 μl of 2 mg/ml biotin-CREKA (SEQ ID NO: 1) in PBS. The wells were subsequently treated three times with 200 μl SuperBlock® blocking buffer (Pierce).
# Binding assays were performed as follows. […]
# For competitions with free CREKA (SEQ ID NO: 1) peptide, phage displaying the clone #3 collagen IV fragment (SEQ ID NO: 2; 1×10^7 pfu) were applied to CREKA (SEQ ID NO: 1)-coated surfaces in 96-well ELISA plates prepared as described above, and incubated for one […] in the presence of 0.01 mg, 0.05 mg, or 0.1 mg soluble CREKA (SEQ ID NO: 1) peptide in 100 μl PBS. […] After 20 washes with 100 μl PBS, phage particles were recovered by infecting BL21 bacteria, and the number of attached phage determined. Phage output was determined as a percentage of phage recovered from wells not treated with soluble peptide.
# [3] = system: mitochondrial membranes; details: concentration of 10 μM; cited from earlier work
# [4] = system: MMTV PyMT tumors; experiment: Tissue localization of fluorescein- and rhodamine-labeled peptide after intravenous injection; type: in vivo, mouse; details: for detection of labeled peptide in MMTV PyMT tumors / detection of labeled peptide in normal tissues: 15 minutes after intravenous injection; for detection of labeled peptide in normal tissues: brain or liver
# Protocol: Similarly, fluorescein (FITC) and rhodamine labeled CREKA (SEQ ID NO: 1) peptides also were detected in MMTV PyMT tumors 15 minutes after intravenous injection but were not observed in normal tissues such as the brain or liver (compare FIG. 3A with FIGS. 3B and 3C). […] As expected, control organs such as the heart, injected with rhodamine-labeled CREKA (SEQ ID NO: 1) and FITC-tomato-lectin, which stains blood vessels, were negative for CREKA (SEQ ID NO: 1) peptide staining (see FIG. 3F).
# Peptide synthesis and labeling of peptides with fluorescein and rhodamine was carried out as described in Wender et al., Proc. Natl. Acad. Sci., USA 97:13003-13008 (2000), and Oku et al., supra, 2002, and detected essentially as follows. A 1 mg/ml solution of fluorescein-labeled CREKA (SEQ ID NO: 1) peptide in PBS was injected into the tail vein of MMTV PyMT mice. After 15 minutes or two hours of circulation, mice were perfused through the heart with 10 ml PBS, and the indicated organs harvested. Tissues were dissected, fixed with 3.7% paraformaldehyde for two hours, washed with PBS, and soaked in glycine (0.01%, pH 7.4) for 12 hours. Specimens were then treated with a sucrose gradient (12%, 15%, 18%), embedded in Tissue-Tek© (Miles Inc.; Elkhardt, Ind.) and frozen. Subsequently, 5 μm sections were prepared for fluorescence microscopy, and 50 μm sections were prepared for confocal microscopy. To detect blood vessels, 100 μl of 1 mg/ml solution of fluorescein-labeled tomato lectin (Vector Labs; Burlingame, Calif.) was injected into mice in PBS.
# [5] = target: T2, collagen IV in MMTV-PyMT tumors (Mus musculus, UniProt P02463+P08122); experiment: Co-localization of injected FITC peptide with collagen IV immunostaining in tumors; type: in vivo; details: 100 μg injected into tail vein, 15 minutes; connective tissue surrounding tumor masses
# T2 construct: from tissue; host or cells: breast tumors of MMTV PyMT mice
# Protocol: Localization of collagen IV was compared to the localization of CREKA (SEQ ID NO: 1) peptide in breast tumors.
# Immunostaining was performed after injection of 100 μg FITC-CREKA (SEQ ID NO: 1) into the tail vein of MMTV PyMT mice. After 15 minutes, tumors were dissected, fixed, stained for collagen IV and counter-stained with DAPI essentially as follows. Collagen IV was detected by immunofluorescence as described in Engvall et al., supra, 1982, with the following modifications. Briefly, mouse tissues were fixed with 3.7% paraformaldehyde for two hours, washed with PBS, and incubated in glycine (0.01%, pH 7.4) for 12 hours to quench autofluorescence of the samples. Specimens were then treated with increasing concentrations of sucrose (12%, 15%, 18%), embedded in Tissue-Tek© (Miles Inc.), frozen, and cut into 5 μm sections. After an overnight incubation with rabbit antiserum to collagen IV (diluted 1:40 in PBS) at 4° C. (Engvall et al., supra, 1982), the sections were washed with PBS and incubated with rhodamine-labeled goat anti-rabbit antibody (DAKO) at a dilution of 1:30 for 30 minutes. After washing, the sections were mounted in 90% glycerol.
# [6] = system: tumor; experiment: In vivo tumor homing of CREKA phage with co-injection of gelatin
# [7] = after two hours, localizing outside the blood vessels
# T2 sequence (P02463 173-1669): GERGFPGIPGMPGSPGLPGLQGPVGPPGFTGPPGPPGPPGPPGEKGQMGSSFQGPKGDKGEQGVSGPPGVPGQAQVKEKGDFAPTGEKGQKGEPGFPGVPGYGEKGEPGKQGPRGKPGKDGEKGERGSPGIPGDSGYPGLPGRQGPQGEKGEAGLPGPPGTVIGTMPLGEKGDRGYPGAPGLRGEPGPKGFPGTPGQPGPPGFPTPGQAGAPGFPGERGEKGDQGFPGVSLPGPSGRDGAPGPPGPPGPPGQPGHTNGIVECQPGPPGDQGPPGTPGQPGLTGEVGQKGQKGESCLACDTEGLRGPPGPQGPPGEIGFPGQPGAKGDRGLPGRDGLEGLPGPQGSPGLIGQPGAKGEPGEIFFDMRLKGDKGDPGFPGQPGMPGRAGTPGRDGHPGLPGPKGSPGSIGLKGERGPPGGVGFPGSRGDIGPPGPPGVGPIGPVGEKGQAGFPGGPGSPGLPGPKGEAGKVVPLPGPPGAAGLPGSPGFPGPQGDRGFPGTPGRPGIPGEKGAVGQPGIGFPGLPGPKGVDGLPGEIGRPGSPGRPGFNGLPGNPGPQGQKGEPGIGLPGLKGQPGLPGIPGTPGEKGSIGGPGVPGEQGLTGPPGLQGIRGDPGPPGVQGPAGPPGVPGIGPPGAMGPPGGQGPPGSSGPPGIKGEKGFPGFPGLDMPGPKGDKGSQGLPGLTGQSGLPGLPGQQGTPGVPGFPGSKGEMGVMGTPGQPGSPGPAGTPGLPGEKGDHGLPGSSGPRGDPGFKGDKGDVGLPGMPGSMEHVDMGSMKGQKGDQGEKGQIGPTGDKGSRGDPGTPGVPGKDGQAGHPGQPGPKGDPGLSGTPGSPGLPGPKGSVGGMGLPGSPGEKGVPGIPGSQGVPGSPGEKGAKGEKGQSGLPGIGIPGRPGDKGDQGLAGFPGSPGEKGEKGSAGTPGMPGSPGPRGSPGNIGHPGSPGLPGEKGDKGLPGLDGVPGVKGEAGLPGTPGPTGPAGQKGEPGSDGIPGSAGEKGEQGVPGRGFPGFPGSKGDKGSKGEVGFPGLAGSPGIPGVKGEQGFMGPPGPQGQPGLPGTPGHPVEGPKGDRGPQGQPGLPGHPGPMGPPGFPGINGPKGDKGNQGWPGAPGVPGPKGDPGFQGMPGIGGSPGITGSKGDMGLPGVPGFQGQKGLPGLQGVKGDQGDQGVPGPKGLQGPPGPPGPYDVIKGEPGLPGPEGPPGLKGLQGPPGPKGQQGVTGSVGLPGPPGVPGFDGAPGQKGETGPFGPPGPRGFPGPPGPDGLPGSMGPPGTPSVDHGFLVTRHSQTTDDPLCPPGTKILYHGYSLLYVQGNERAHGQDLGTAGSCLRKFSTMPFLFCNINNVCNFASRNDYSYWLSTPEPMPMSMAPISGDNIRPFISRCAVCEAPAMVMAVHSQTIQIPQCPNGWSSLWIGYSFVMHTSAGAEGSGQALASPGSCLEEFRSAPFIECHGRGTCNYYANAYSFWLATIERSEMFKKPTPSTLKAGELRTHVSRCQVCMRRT
# T2 sequence (P08122 184-1707): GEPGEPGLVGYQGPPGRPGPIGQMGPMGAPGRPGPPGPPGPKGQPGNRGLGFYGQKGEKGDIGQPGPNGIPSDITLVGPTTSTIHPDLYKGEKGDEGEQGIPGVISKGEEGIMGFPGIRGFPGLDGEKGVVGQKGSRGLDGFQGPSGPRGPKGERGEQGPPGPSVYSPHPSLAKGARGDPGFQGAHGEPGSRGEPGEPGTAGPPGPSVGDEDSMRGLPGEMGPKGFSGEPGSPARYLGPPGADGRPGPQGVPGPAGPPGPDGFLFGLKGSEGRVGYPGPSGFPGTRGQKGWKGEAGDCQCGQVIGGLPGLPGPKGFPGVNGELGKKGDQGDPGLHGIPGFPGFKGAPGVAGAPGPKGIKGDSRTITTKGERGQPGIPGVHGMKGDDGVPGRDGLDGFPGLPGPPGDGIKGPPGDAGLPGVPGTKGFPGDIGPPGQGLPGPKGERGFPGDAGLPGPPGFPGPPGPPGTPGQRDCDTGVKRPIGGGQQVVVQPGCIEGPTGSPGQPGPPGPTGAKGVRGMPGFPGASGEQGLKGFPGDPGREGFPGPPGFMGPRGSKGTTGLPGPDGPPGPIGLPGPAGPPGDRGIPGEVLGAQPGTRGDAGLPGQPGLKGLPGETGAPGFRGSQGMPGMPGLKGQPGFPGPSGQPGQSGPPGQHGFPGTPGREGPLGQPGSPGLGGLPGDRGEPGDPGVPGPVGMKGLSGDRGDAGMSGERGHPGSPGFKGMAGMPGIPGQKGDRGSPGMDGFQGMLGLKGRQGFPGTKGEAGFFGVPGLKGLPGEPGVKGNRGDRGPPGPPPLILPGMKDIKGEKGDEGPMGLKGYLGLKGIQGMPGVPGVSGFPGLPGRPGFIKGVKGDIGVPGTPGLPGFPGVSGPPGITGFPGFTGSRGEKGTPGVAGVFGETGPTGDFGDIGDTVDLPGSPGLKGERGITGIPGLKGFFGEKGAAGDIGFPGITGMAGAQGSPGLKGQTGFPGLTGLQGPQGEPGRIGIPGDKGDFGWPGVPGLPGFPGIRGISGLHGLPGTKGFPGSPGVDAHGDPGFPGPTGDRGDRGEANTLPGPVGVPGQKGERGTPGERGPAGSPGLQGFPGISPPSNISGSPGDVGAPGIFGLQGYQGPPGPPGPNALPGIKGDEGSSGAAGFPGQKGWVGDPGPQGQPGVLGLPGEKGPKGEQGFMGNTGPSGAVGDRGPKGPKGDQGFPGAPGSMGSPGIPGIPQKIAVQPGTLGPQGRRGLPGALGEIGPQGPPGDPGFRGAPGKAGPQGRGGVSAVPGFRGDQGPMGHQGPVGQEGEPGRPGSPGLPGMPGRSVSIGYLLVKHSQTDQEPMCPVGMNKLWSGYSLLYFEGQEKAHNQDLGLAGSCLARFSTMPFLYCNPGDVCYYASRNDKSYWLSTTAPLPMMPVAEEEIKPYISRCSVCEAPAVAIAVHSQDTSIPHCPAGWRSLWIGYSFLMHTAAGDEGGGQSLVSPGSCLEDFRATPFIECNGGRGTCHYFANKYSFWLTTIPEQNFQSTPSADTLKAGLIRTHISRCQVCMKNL
Substance,detection of labeled peptide in MMTV PyMT tumors [4],distribution of labeled peptide within tumor ([4]; 15 minutes after the injection),"distribution of labeled peptide within tumor [4, 7]",detection of labeled peptide in normal tissues [4],other results
CREKA [CREKA peptide],–,–,–,–,"effect of co-injected free peptide on homing of phage displaying the control peptide [1]: did not inhibit; effect of co-injected free peptide on CREKA-displaying phage recovery from breast cancer tissue ([1]; excess of free peptide, FIG. 1B): inhibited; inhibition of clone #3 collagen IV fragment phage binding to immobilized CREKA ([2]; 0.01 mg, 0.05 mg or 0.1 mg soluble peptide in 100 μl PBS, FIG. 5A): inhibited"
D(KLAKLAK)2,–,–,–,–,mitochondrial swelling [3]: marked mitochondrial swelling
FITC-CREKA: fluorescein (FITC) labeled CREKA (SEQ ID NO: 1) peptide ({FITC}-CREKA),detected,primarily in the tumor periphery,detected in the entire tumor,not observed,co-localization with collagen IV in tumors [5]: partially co-localized
Fibronectin [reference compound],–,–,–,–,"effect of fibronectin on phage binding (clone #3 fragment / immobilized CREKA) ([2]; fibronectin, FIG. 5B): did not significantly reduce"
gelatin,–,–,–,–,effect of co-injection on in vivo tumor homing of CREKA-expressing phage [6]: completely blocked
"rhodamine-labeled CREKA: rhodamine labeled CREKA (SEQ ID NO: 1) peptide (also: rhodamine label, site not given here)",detected,primarily in the tumor periphery,detected in the entire tumor,not observed,"CREKA peptide staining in heart ([4]; heart, co-injected with FITC-tomato-lectin, FIG. 3F): negative"
